Data from PubChem BioAssay AID330 (DTP/NCI, 2004).
Values joined by “and” are separate entries in the source; they are usually repeats but may differ in a detail not shown here. Equal entries are not always repeated. Toxic doses and inconclusive results are not listed. Rule for the calls: active = survival T/C of 150% or more; inactive = T/C below 125% in these data.

Test system: P388 leukemia ip, CD2F1 mice, survival T/C
Test: NCI In Vivo Anticancer Drug Screen. Data for tumor model P388 Leukemia (intraperitoneal) in CD2F1 (CDF1) mice
Conditions: endpoint: median survival time, higher = longer survival
Procedure, shortened: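 Mice carrying the transplanted tumor received test compound or vehicle. Survival was recorded in each group, and the value is the treated-group measurement divided by that of the vehicle-treated control group.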

Measured: T/C

C[C@]12CC[C@H](OC(=O)Cc3ccc(N(CCCl)CCCl)cc3)CC1=CC[C@@H]1[C@@H]2CC[C@]2(C)C(=O)CC[C@@H]12
active: dose: 128.0 mg/kg/injection, schedule: Q03HX008 (ip), vehicle: saline 168 % of control | dose: 128.0 mg/kg/injection, schedule: Q03HX016 (ip), vehicle: saline 154 % of control | dose: 200.0 mg/kg/injection, schedule: Q04DX003 (ip), vehicle: saline with Tween-80 150 % of control | dose: 264.0 mg/kg/injection, schedule: Q04DX003 (ip), vehicle: saline with Tween-80 179 % of control | dose: 400.0 mg/kg/injection, schedule: Q04DX003 (ip), vehicle: saline with Tween-80 183 % of control and 200 % of control | dose: 512.0 mg/kg/injection, schedule: Q01DX009 (ip), vehicle: saline 150 % of control | dose: 1024.0 mg/kg/injection, schedule: Q04DX003 (ip), vehicle: saline 163 % of control | dose: 1024.0 mg/kg/injection, schedule: Q08DX002 (ip), vehicle: saline 159 % of control
inactive: dose: 16.0 mg/kg/injection, schedule: Q03HX024 (ip), vehicle: saline 95 % of control | dose: 32.0 mg/kg/injection, schedule: Q03HX008 (ip), vehicle: saline 90 % of control | dose: 32.0 mg/kg/injection, schedule: Q03HX016 (ip), vehicle: saline 100 % of control | dose: 32.0 mg/kg/injection, schedule: Q03HX024 (ip), vehicle: saline 90 % of control | dose: 64.0 mg/kg/injection, schedule: Q01DX009 (ip), vehicle: saline 100 % of control | dose: 64.0 mg/kg/injection, schedule: Q01DX009 (sc), vehicle: saline 104 % of control | dose: 64.0 mg/kg/injection, schedule: Q03HX008 (ip), vehicle: saline 109 % of control | dose: 64.0 mg/kg/injection, schedule: Q03HX016 (ip), vehicle: saline 109 % of control | dose: 64.0 mg/kg/injection, schedule: Q03HX024 (ip), vehicle: saline 109 % of control | dose: 128.0 mg/kg/injection, schedule: Q01DX009 (ip), vehicle: saline 95 % of control | dose: 128.0 mg/kg/injection, schedule: Q01DX009 (sc), vehicle: saline 109 % of control | dose: 128.0 mg/kg/injection, schedule: Q03HX024 (ip), vehicle: saline 100 % of control | dose: 128.0 mg/kg/injection, schedule: Q04DX003 (ip), vehicle: saline 100 % of control | dose: 256.0 mg/kg/injection, schedule: Q01DX001 (ip), vehicle: saline 100 % of control | dose: 256.0 mg/kg/injection, schedule: Q01DX001 (sc), vehicle: saline 100 % of control | dose: 256.0 mg/kg/injection, schedule: Q01DX009 (oral), vehicle: saline 109 % of control | dose: 256.0 mg/kg/injection, schedule: Q01DX009 (sc), vehicle: saline 118 % of control | dose: 256.0 mg/kg/injection, schedule: Q03HX008 (ip), vehicle: saline 122 % of control | dose: 256.0 mg/kg/injection, schedule: Q04DX003 (ip), vehicle: saline 100 % of control | dose: 256.0 mg/kg/injection, schedule: Q08DX002 (ip), vehicle: saline 100 % of control | dose: 512.0 mg/kg/injection, schedule: Q01DX001 (ip), vehicle: saline 104 % of control | dose: 512.0 mg/kg/injection, schedule: Q01DX001 (sc), vehicle: saline 104 % of control | dose: 512.0 mg/kg/injection, schedule: Q01DX009 (oral), vehicle: saline 113 % of control | dose: 512.0 mg/kg/injection, schedule: Q04DX003 (ip), vehicle: saline 122 % of control | dose: 512.0 mg/kg/injection, schedule: Q08DX002 (ip), vehicle: saline 118 % of control | dose: 600.0 mg/kg/injection, schedule: Q04DX003 (ip), vehicle: saline with Tween-80 112 % of control | dose: 1024.0 mg/kg/injection, schedule: Q01DX001 (ip), vehicle: saline 118 % of control | dose: 1024.0 mg/kg/injection, schedule: Q01DX001 (sc), vehicle: saline 118 % of control | dose: 1024.0 mg/kg/injection, schedule: Q01DX009 (oral), vehicle: saline 109 % of control | dose: 2048.0 mg/kg/injection, schedule: Q01DX001 (ip), vehicle: saline 109 % of control | dose: 2048.0 mg/kg/injection, schedule: Q01DX009 (oral), vehicle: saline 118 % of control | dose: 2048.0 mg/kg/injection, schedule: Q08DX002 (ip), vehicle: saline 90 % of control

CC1(Cc2ccccc2)N=C1c1ccccc1 (configuration not stated)
inactive: dose: 100.0 mg/kg/injection, schedule: Q04DX002 (ip), vehicle: saline with Tween-80 106 % of control | dose: 200.0 mg/kg/injection, schedule: Q04DX002 (ip), vehicle: saline with Tween-80 103 % of control

CCCCn1c(C)nc2c(cnn2C)c1=O
inactive: dose: 50.0 mg/kg/injection, schedule: Q01DX005 (ip), vehicle: Klucel (hydroxypropylcellulose) (HPC) 114 % of control | dose: 100.0 mg/kg/injection, schedule: Q01DX005 (ip), vehicle: Klucel (hydroxypropylcellulose) (HPC) 101 % of control | dose: 200.0 mg/kg/injection, schedule: Q01DX005 (ip), vehicle: Klucel (hydroxypropylcellulose) (HPC) 108 % of control

O=C(O)c1nc2cn1/C=C\C=NCC1=CN3C=CC=NC3(C(=O)O)N1C2 (configuration not stated)
inactive: dose: 25.0 mg/kg/injection, schedule: Q01DX009 (ip), vehicle: saline with Tween-80 101 % of control | dose: 50.0 mg/kg/injection, schedule: Q01DX009 (ip), vehicle: saline with Tween-80 109 % of control | dose: 100.0 mg/kg/injection, schedule: Q01DX009 (ip), vehicle: saline with Tween-80 95 % of control

CCOP(=O)(O)OCC
inactive: dose: 100.0 mg/kg/injection, schedule: Q04DX003 (ip), vehicle: Klucel (hydroxypropylcellulose) (HPC) 93 % of control | dose: 200.0 mg/kg/injection, schedule: Q04DX003 (ip), vehicle: Klucel (hydroxypropylcellulose) (HPC) 89 % of control | dose: 400.0 mg/kg/injection, schedule: Q04DX003 (ip), vehicle: Klucel (hydroxypropylcellulose) (HPC) 96 % of control

CC(=O)Oc1c2c(c(C)c3ccccc13)C(=O)c1cccnc1C2=O
inactive: dose: 100.0 mg/kg/injection, schedule: Q01DX001 (ip), vehicle: saline 98 % of control | dose: 200.0 mg/kg/injection, schedule: Q01DX001 (ip), vehicle: saline 89 % of control | dose: 400.0 mg/kg/injection, schedule: Q01DX001 (ip), vehicle: saline 92 % of control

Cc1ccc2c(c1)C1(SC(C)C(=O)N1c1ccc(Cl)cc1)C(=O)N2 (configuration not stated)
inactive: dose: 30.0 mg/kg/injection, schedule: Q01DX005 (ip), vehicle: saline with Tween-80 103 % of control | dose: 60.0 mg/kg/injection, schedule: Q01DX005 (ip), vehicle: saline with Tween-80 114 % of control and 121 % of control | dose: 120.0 mg/kg/injection, schedule: Q01DX005 (ip), vehicle: saline with Tween-80 119 % of control
